Measurements reported in publication PMC11876601 (Molecular Systems Biology, 2025).
Like-named read-outs stand apart in the source and are kept apart here. One block for each compound: values may come before it.

Experiments:
AsPC-1 cells = assay: Drug combination viability screen (ATPlite, 72 h); type: cell-based, human; set-up: key to AUC: AUC of dose-response curve; AUC∆ = AUChypothetical − AUCexperimental; Curve top / Curve bottom / Curve effect size: scale not given here; conditions: for EC50: Homo sapiens; for Library drug only (ratio): cell viability (library drug/vehicle); for Library drug + GEM low (ratio) / Library drug + GEM high (ratio): cell viability vs vehicle; for Bliss_Library drug + GEM low (ratio) / Bliss_Library drug + GEM high (ratio): hypothetical viability, Bliss model;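 for AUC: area under vehicle-normalized viability curve scaled 0 to 100 percent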;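 for Curve bottom: fraction of vehicle control viability from four-parameter log-logistic fit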
Method: Cell viability was assessed by measuring ATP levels to indicate metabolic activity.
Afterward, small amounts were transferred to 384-well intermediate plates (Greiner Bio-One GmbH, Germany). […] For drug combination screening, 1000 to 5000 cells were seeded into 384-well plates (CulturPlate™, Perkin Elmer, MA, USA) using a Multidrop™ Combi Reagent Dispenser (Thermo Scientific, MA, USA) in 50 µl medium per well 24 h prior to drug treatment (seeding densities see Appendix Table S1). […] The final DMSO concentration in each well was 0.2%. […] Eight wells per plate without library drug served as negative controls, and sixteen wells per plate containing 5 µM Staurosporine served as positive controls. Control plates not containing any drug were used to correct for incubation effects, and data quality was assessed by calculation of Z-prime of positive and negative controls according to1 Z-prime=1−3SDpos+3SDneg/[…] where SD is the standard deviation. […] Dose–response curves from the experimental and hypothetical data were compared, and shifts in AUC were used to describe combination effects (AUC∆ = AUChypothetical − AUCexperimental). […] Only combinations with R^2 > 0.8 in both conditions were considered in the synergy analysis.

CAMK2D = conditions: cited from earlier work
ULK3 = conditions: cited from earlier work
PAK4 = conditions: cited from earlier work
BxPC-3 = assay: cells; set-up: ATPlite luminescence viability of PDAC cell lines, 11-dose single-agent curves, 4-parameter fit; conditions: Homo sapiens, BXPC-3, 72 h, read-out: EC50 [nM]
How it was run: (§1)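 cells (1000 to 5000 per well) seeded 24 h before drug addition in a combination screen at 0.2% final DMSO. Controls were drug-free wells (negative) and 5 µM staurosporine (positive).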

AsPC-1 = assay: cells; set-up: ATPlite luminescence viability of PDAC cell lines, 11-dose single-agent curves, 4-parameter fit; conditions: Homo sapiens, ASPC1, 72 h, read-out: EC50 [nM]
How it was run: as §1

[1] = ASPC1, read-out: pEC50 (converted)
[2] = AsPC-1, GEM high_Bliss (hypothetical data)
[3] = AsPC-1, GEM low_Bliss (hypothetical data)
[4] = AsPC-1, library drug […] nM + GEM 10 nM
[5] = AsPC-1, library drug […] nM + GEM 30 nM
[6] = AsPC-1, library drug 370.37 nM + GEM 10 nM
[7] = AsPC-1, library drug 370.37 nM + GEM 30 nM
[8] = AsPC-1, library drug 1111.11 nM + GEM 10 nM
[9] = AsPC-1, library drug 1111.11 nM + GEM 30 nM
[10] = AsPC-1, library drug 3333.33 nM + GEM 10 nM
[11] = AsPC-1, library drug 3333.33 nM + GEM 30 nM
[12] = AsPC-1, library drug 10000 nM + GEM 10 nM
[13] = AsPC-1, library drug 10000 nM + GEM 30 nM
[14] = 5 cell line mix lysate, Kinobeads ε, ref Reinecke et al. (2023)
[15] = ULK3, 5 cell line mix lysate, Kinobeads ε, ref Reinecke et al. (2023)
[16] = PAK4, 5 cell line mix lysate, Kinobeads ε, ref Reinecke et al. (2023)

SMILES: Nc1ccn([C@@H]2O[C@H](CO)[C@@H](O)C2(F)F)c(=O)n1 [GEM, Gemcitabine]
- Reponse (AsPC-1 cells; AsPC-1, R1, 13.72 nM): 1567840
- Reponse (AsPC-1 cells; AsPC-1, R1, 41.15 nM): 1226120
- Reponse (AsPC-1 cells; AsPC-1, R1, […] nM): 1025760
- Reponse (AsPC-1 cells; AsPC-1, R1, 370.37 nM): 921880
- Reponse (AsPC-1 cells; AsPC-1, R1, 1111.11 nM): 872680
- Reponse (AsPC-1 cells; AsPC-1, R1, 3333.33 nM): 849760
- Reponse (AsPC-1 cells; AsPC-1, R1, 10000 nM): 784080
- Reponse (AsPC-1 cells; AsPC-1, R2, 13.72 nM): 1654800
- Reponse (AsPC-1 cells; AsPC-1, R2, 41.15 nM): 1220360
- Reponse (AsPC-1 cells; AsPC-1, R2, […] nM): 984000
- Reponse (AsPC-1 cells; AsPC-1, R2, 370.37 nM): 972200
- Reponse (AsPC-1 cells; AsPC-1, R2, 1111.11 nM): 963400
- Reponse (AsPC-1 cells; AsPC-1, R2, 10000 nM): 773560
- AUC (AsPC-1 cells; AsPC-1, GEM curve fit): 70.34
- Curve bottom (AsPC-1 cells; AsPC-1, GEM curve fit): 0.46
- Curve effect size (AsPC-1 cells; AsPC-1, GEM curve fit): 0.55
- Curve slope (AsPC-1 cells; AsPC-1, GEM curve fit): 1.15
- Curve top (AsPC-1 cells; AsPC-1, GEM curve fit): 1.04
- GEM low only (raw) (AsPC-1 cells; AsPC-1, luminescence signal, plate mean, GEM 10 nM): 1700020
- GEM high only (raw) (AsPC-1 cells; AsPC-1, luminescence signal, plate mean, GEM 30 nM): 1564215
- EC50 (AsPC-1 cells; ASPC1, read-out: EC50,GEM): ≥ 10 nM
- EC50 (AsPC-1 cells; ASPC1, read-out: EC50): 27.1 nM
- EC50 (AsPC-1 cells; [1]): 26.9 nM

SMILES: C[C@]12O[C@H](C[C@]1(O)CO)n1c3ccccc3c3c4c(c5c6ccccc6n2c5c31)CNC4=O [Lestaurtinib]
- EC50 (BxPC-3): 432 nM

- EC50 (AsPC-1 cells; ASPC1, read-out: EC50): 16500 nM
- EC50 (AsPC-1 cells; [1]): 16600 nM
- EC50 (AsPC-1): > 10000 nM
- EC50 (BxPC-3): 337 nM
SMILES: CCN1CCN(Cc2ccc(Nc3ncc(F)c(-c4cc(F)c5nc(C)n(C(C)C)c5c4)n3)nc2)CC1 [Abemaciclib]
- AUC (AsPC-1 cells; AsPC-1, GEM high): 87.77%
- Curve bottom (AsPC-1 cells; AsPC-1, GEM high): 0.63
- Curve effect size (AsPC-1 cells; AsPC-1, GEM high): 0.23
- Curve slope (AsPC-1 cells; AsPC-1, GEM high): 0.52
- Curve top (AsPC-1 cells; AsPC-1, GEM high): 0.85
- AUC (AsPC-1 cells; [2]): 82.66%
- Curve bottom (AsPC-1 cells; [2]): -0.27
- Curve effect size (AsPC-1 cells; [2]): 0.57
- Curve slope (AsPC-1 cells; [2]): 0.36
- Curve top (AsPC-1 cells; [2]): 0.8
- AUC (AsPC-1 cells; AsPC-1, GEM low): 89.92%
- Curve bottom (AsPC-1 cells; AsPC-1, GEM low): 0.62
- Curve effect size (AsPC-1 cells; AsPC-1, GEM low): 0.28
- Curve slope (AsPC-1 cells; AsPC-1, GEM low): 1.21
- Curve top (AsPC-1 cells; AsPC-1, GEM low): 0.86
- AUC (AsPC-1 cells; [3]): 82.59%
- Curve bottom (AsPC-1 cells; [3]): -0.23
- Curve effect size (AsPC-1 cells; [3]): 0.57
- Curve slope (AsPC-1 cells; [3]): 0.36
- Curve top (AsPC-1 cells; [3]): 0.87
- Library drug only (ratio) (AsPC-1 cells; AsPC-1, library drug […] nM): 0.76
- Library drug only (ratio) (AsPC-1 cells; AsPC-1, library drug 370.37 nM): 0.72
- Library drug only (ratio) (AsPC-1 cells; AsPC-1, library drug 1111.11 nM): 0.63
- Library drug only (ratio) (AsPC-1 cells; AsPC-1, library drug 3333.33 nM): 0.64
- Library drug only (ratio) (AsPC-1 cells; AsPC-1, library drug 10000 nM): 0.33
- Library drug + GEM low (ratio) (AsPC-1 cells; [4]): 0.80
- Library drug + GEM high (ratio) (AsPC-1 cells; [5]): 0.73
- Library drug + GEM low (ratio) (AsPC-1 cells; [6]): 0.68
- Library drug + GEM high (ratio) (AsPC-1 cells; [7]): 0.65
- Library drug + GEM low (ratio) (AsPC-1 cells; [8]): 0.63
- Library drug + GEM high (ratio) (AsPC-1 cells; [9]): 0.65
- Library drug + GEM low (ratio) (AsPC-1 cells; [10]): 0.67
- Library drug + GEM high (ratio) (AsPC-1 cells; [11]): 0.67
- Library drug + GEM low (ratio) (AsPC-1 cells; [12]): 0.59
- Library drug + GEM high (ratio) (AsPC-1 cells; [13]): 0.64
- Bliss_Library drug + GEM low (ratio) (AsPC-1 cells; [4]): 0.69
- Bliss_Library drug + GEM high (ratio) (AsPC-1 cells; [5]): 0.63
- Bliss_Library drug + GEM low (ratio) (AsPC-1 cells; [6]): 0.65
- Bliss_Library drug + GEM high (ratio) (AsPC-1 cells; [7]): 0.60
- Bliss_Library drug + GEM low (ratio) (AsPC-1 cells; [8]): 0.57
- Bliss_Library drug + GEM high (ratio) (AsPC-1 cells; [9]): 0.52
- Bliss_Library drug + GEM low (ratio) (AsPC-1 cells; [10]): 0.58
- Bliss_Library drug + GEM high (ratio) (AsPC-1 cells; [11]): 0.53
- Bliss_Library drug + GEM low (ratio) (AsPC-1 cells; [12]): 0.30
- Bliss_Library drug + GEM high (ratio) (AsPC-1 cells; [13]): 0.27
- Library drug only (raw) (AsPC-1 cells; AsPC-1, luminescence signal, library drug […] nM): 1429160
- Library drug + GEM low (raw) (AsPC-1 cells; AsPC-1, luminescence signal, library drug […] nM + GEM 10 nM): 1506080
- Library drug + GEM high (raw) (AsPC-1 cells; AsPC-1, luminescence signal, library drug […] nM + GEM 30 nM): 1369120
- Library drug only (raw) (AsPC-1 cells; AsPC-1, luminescence signal, library drug 370.37 nM): 1356440
- Library drug + GEM low (raw) (AsPC-1 cells; AsPC-1, luminescence signal, library drug 370.37 nM + GEM 10 nM): 1276520
- Library drug + GEM high (raw) (AsPC-1 cells; AsPC-1, luminescence signal, library drug 370.37 nM + GEM 30 nM): 1223760
- Library drug only (raw) (AsPC-1 cells; AsPC-1, luminescence signal, library drug 1111.11 nM): 1177560
- Library drug + GEM low (raw) (AsPC-1 cells; AsPC-1, luminescence signal, library drug 1111.11 nM + GEM 10 nM): 1187000
- Library drug + GEM high (raw) (AsPC-1 cells; AsPC-1, luminescence signal, library drug 1111.11 nM + GEM 30 nM): 1214720
- Library drug only (raw) (AsPC-1 cells; AsPC-1, luminescence signal, library drug 3333.33 nM): 1196040
- Library drug + GEM low (raw) (AsPC-1 cells; AsPC-1, luminescence signal, library drug 3333.33 nM + GEM 10 nM): 1253360
- Library drug + GEM high (raw) (AsPC-1 cells; AsPC-1, luminescence signal, library drug 3333.33 nM + GEM 30 nM): 1251960
- Library drug only (raw) (AsPC-1 cells; AsPC-1, luminescence signal, library drug 10000 nM): 618520
- Library drug + GEM low (raw) (AsPC-1 cells; AsPC-1, luminescence signal, library drug 10000 nM + GEM 10 nM): 1109040
- Library drug + GEM high (raw) (AsPC-1 cells; AsPC-1, luminescence signal, library drug 10000 nM + GEM 30 nM): 1201080
- AUC (AsPC-1 cells; AsPC-1, no GEM (single drug)): 82.59%
- Curve bottom (AsPC-1 cells; AsPC-1, no GEM (single drug)): -0.27
- Curve effect size (AsPC-1 cells; AsPC-1, no GEM (single drug)): 0.57
- Curve slope (AsPC-1 cells; AsPC-1, no GEM (single drug)): 0.36
- Curve top (AsPC-1 cells; AsPC-1, no GEM (single drug)): 0.97

SMILES: COc1cc(N2CCC(N3CCN(C)CC3)CC2)ccc1Nc1ncc(Cl)c(Nc2ccccc2P(C)(C)=O)n1 [Brigatinib]
- Kd (CAMK2D; 5 cell line mix lysate, Kinobeads ε, ref Reinecke et al. (2023), read-out: KDapp): 86.4 nM
- EC50 (CAMK2D; [14]): 424 nM
- pKDapp (CAMK2D; [14]): 7.06
- EC50 (ULK3; [15]): 306 nM
- pKDapp (ULK3; [15]): 6.86
- Kd (ULK3; ULK3, 5 cell line mix lysate, Kinobeads ε, ref Reinecke et al. (2023), read-out: KDapp): 139 nM
- EC50 (PAK4; [16]): 1190 nM
- pKDapp (PAK4; [16]): 6.14
- Kd (PAK4; PAK4, 5 cell line mix lysate, Kinobeads ε, ref Reinecke et al. (2023), read-out: KDapp): 718 nM
- EC50 (AsPC-1): 272 nM
